Experiment: Solubility of precipitated copper glycerolate
Conditions: suspended in water, pH reduced with sulphuric acid

copper (II) glycerolate [copper glycerolate]
pH at which the suspended precipitate re-dissolved: around 4
